Data: the supplement of paper PMC8960247
Counter-ions that a name gives are not always drawn. ± gives the standard error.

Key:
621-102 (TSC2-deficient) = assay: relative viability vs DMSO; higher = less cytotoxic; settings: serum: 10% FBS, 72 h
621-103 (TSC2-rescued) = assay: as above; settings: serum: 10% FBS, 72 h
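Also: immortalized renal angiomyolipoma cells stably carrying empty vector or TSC2, dosed in 384-well plates in DMEM, viability normalized to vehicle-treated wells within each plate.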

SMILES | relative viability (621-102 (TSC2-deficient); 0.0001 µM) [%] | relative viability (621-102 (TSC2-deficient); 0.001 µM) [%] | relative viability (621-102 (TSC2-deficient); 0.01 µM) [%] | relative viability (621-102 (TSC2-deficient); 0.1 µM) [%] | relative viability (621-102 (TSC2-deficient); 1 µM) [%] | relative viability (621-102 (TSC2-deficient); 10 µM) [%] | relative viability (621-103 (TSC2-rescued); 0.0001 µM) [%] | relative viability (621-103 (TSC2-rescued); 0.001 µM) [%] | relative viability (621-103 (TSC2-rescued); 0.01 µM) [%] | relative viability (621-103 (TSC2-rescued); 0.1 µM) [%] | relative viability (621-103 (TSC2-rescued); 1 µM) [%] | relative viability (621-103 (TSC2-rescued); 10 µM) [%]
S=C(NCc1ccc2c(c1)OCO2)N1CCN(c2ncnc3c2oc2ccccc23)CC1 [MP-470] | 105 ± 1.2 | 116 ± 4.3 | 112 ± 2.3 | 125 ± 1.3 | 118 ± 4.8 | 116.2 ± 0.7 | 88.5 ± 5.1 | 104 ± 1.4 | 103.8 ± 0.57 | 106 ± 1.4 | 105.95 ± 0.02 | 112 ± 3.2
COCCCOc1cc(C[C@@H](C[C@H](N)[C@@H](O)C[C@H](C(=O)NCC(C)(C)C(N)=O)C(C)C)C(C)C)ccc1OC [Aliskiren hemifumarate] | 110 ± 2.6 | 111 ± 2.7 | 106 ± 5.1 | 112 ± 1.9 | 98.8 ± 5.5 | 95.9 ± 5.5 | 105 ± 2.6 | 100 ± 1.1 | 104 ± 6.3 | 94.7 ± 4.8 | 96.59 ± 0.53 | 98.8 ± 2.7
COCC(=O)NC/C=C/c1ccc2ncnc(Nc3ccc(Oc4ccc(C)nc4)c(C)c3)c2c1 | 100 ± 2.7 | 97.758 ± 0.079 | 97.3 ± 1.7 | 93.9 ± 1.9 | 98.9 ± 2.8 | 93.2 ± 2.4 | 101 ± 1.9 | 101.6 ± 0.36 | 103.06 ± 0.024 | 104 ± 1.2 | 103.7 ± 0.92 | 107.8 ± 0.28
CNCc1ccc(-c2[nH]c3cc(F)cc4c3c2CCNC4=O)cc1 | 130 ± 2.7 | 109 ± 3.2 | 128 ± 4.3 | 126 ± 4 | 120 ± 1.7 | 98.5 ± 1.6 | 104 ± 1.2 | 104 ± 1.1 | 104.8 ± 0.35 | 107.6 ± 0.23 | 111 ± 1.2 | 88 ± 1.9
CC(C)c1cc(C(C)C)c(CC(=O)NS(=O)(=O)Oc2c(C(C)C)cccc2C(C)C)c(C(C)C)c1 [Avasimibe (CI-1011)] | 106.2 ± 1 | 97.5 ± 2.1 | 95.2 ± 2.4 | 99.6 ± 1.3 | 104.3 ± 0.53 | 106 ± 3.6 | 108 ± 8.1 | 99.44 ± 0.32 | 105 ± 3.1 | 101 ± 0.45 | 97.89 ± 0.25 | 97.8 ± 3.3
CC[C@]1(O)C[C@H]2CN(CCc3c([nH]c4ccccc34)[C@@](C(=O)OC)(c3cc4c(cc3OC)N(C=O)[C@H]3[C@@](O)(C(=O)OC)[C@H](OC(C)=O)[C@]5(CC)C=CCN6CC[C@]43[C@@H]65)C2)C1 [Vincristine Sulfate] | 42 ± 1.8 | 37.1 ± 4.2 | 41.7 ± 0.87 | 38.6 ± 0.59 | 37 ± 0.55 | 33.5 ± 1.3 | 48.3 ± 0.14 | 38 ± 0.93 | 33.5 ± 0.55 | 30.4 ± 0.59 | 27.1 ± 1.3 | 21.9 ± 0.84
CC(=O)O[C@@]12CO[C@@H]1C[C@H](O)[C@@]1(C)C(=O)[C@H](O)C3=C(C)[C@@H](OC(=O)[C@H](O)[C@@H](NC(=O)OC(C)(C)C)c4ccccc4)C[C@@](O)([C@@H](OC(=O)c4ccccc4)[C@H]21)C3(C)C [Docetaxel] | 36.3 ± 1.5 | 32.17 ± 0.058 | 33.5 ± 1.1 | 32.5 ± 0.43 | 31.8 ± 0.54 | 41.7 ± 1.1 | 57 ± 0.81 | 50.6 ± 1 | 42.9 ± 1.7 | 33.2 ± 0.49 | 35.55 ± 0.17 | 55.5 ± 2
COc1ccc(-c2oc3c(CC=C(C)C)c(O[C@@H]4O[C@H](CO)[C@@H](O)[C@H](O)[C@H]4O)cc(O)c3c(=O)c2O[C@@H]2O[C@@H](C)[C@H](O)[C@@H](O)[C@H]2O)cc1 [Icariin] | 93.6 ± 10 | 92.7 ± 2.9 | 89.44 ± 0.27 | 102 ± 5.1 | 87.9 ± 11 | 80.99 ± 0.32 | 116 ± 1.2 | 105 ± 3.3 | 109 ± 1.2 | 101 ± 1.4 | 98.3 ± 5.3 | 116 ± 3.7
CC(C)(C)c1cc(NC(=O)Nc2ccc(-c3cn4c(n3)sc3cc(OCCN5CCOCC5)ccc34)cc2)no1 [AC-220] | 81.8 ± 3.2 | 84.77 ± 0.0088 | 87.3 ± 3.6 | 84.9 ± 5.7 | 70.1 ± 1.2 | 53.1 ± 3 | 96.29 ± 0.69 | 98 ± 1.9 | 99.4 ± 2.7 | 97.8 ± 2.8 | 76.5 ± 4.7 | 44.7 ± 1.2
CN(C)CCCN1c2ccccc2Sc2ccc(Cl)cc21 [Chlorpromazine HCl] | 88.27 ± 0.79 | 87.9 ± 6.9 | 93.3 ± 8.6 | 101 ± 8.9 | 101 ± 7.6 | 81.9 ± 3.2 | 97.7 ± 3.2 | 92.6 ± 5.6 | 95.67 ± 0.89 | 102 ± 6.1 | 91.8 ± 4.6 | 63.7 ± 4.6
COc1ccccc1N1CCN(CC(O)COc2cccc3ccccc23)CC1 (stereo unspecified) [Naftopidil Dihydrochloride] | 103 ± 5.6 | 109 ± 1.6 | 108.5 ± 0.88 | 106 ± 1.2 | 105.81 ± 0.046 | 110 ± 5 | 110 ± 0.54 | 97.8 ± 11 | 106.7 ± 0.54 | 106 ± 3.4 | 104 ± 1.7 | 108 ± 4.8
C[C@@H]1CCO[C@H]2Cn3cc(C(=O)NCc4ccc(F)cc4F)c(=O)c(O)c3C(=O)N12 | 102 ± 1.5 | 104 ± 2.7 | 102.2 ± 0.83 | 106 ± 2.5 | 93.7 ± 9.2 | 108 ± 3.5 | 111.7 ± 0.85 | 109 ± 5.8 | 111 ± 2.1 | 117 ± 2.9 | 112 ± 4 | 109 ± 3.2
CN1CCN(C2=Nc3cc(Cl)ccc3Nc3ccccc32)CC1 [Clozapine] | 100 ± 1.7 | 108 ± 1.1 | 105.2 ± 0.32 | 104 ± 2.2 | 94.53 ± 0.49 | 98.1 ± 3.2 | 101.3 ± 0.79 | 113 ± 2.2 | 109 ± 1.1 | 105 ± 0.64 | 109 ± 0.24 | 92.73 ± 0.46
Cc1ncc([N+](=O)[O-])n1CC(C)O (stereo unspecified) [Secnidazole] | 108.6 ± 0.66 | 118.1 ± 0.34 | 108 ± 3.4 | 101 ± 3.9 | 102.2 ± 0.53 | 111 ± 3 | 101 ± 2.1 | 105 ± 3.6 | 105 ± 4.5 | 105.2 ± 0.64 | 100 ± 4.3 | 93.6 ± 4.8
CN(C)C/C=C/C(=O)Nc1cc2c(Nc3ccc(F)c(Cl)c3)ncnc2cc1O[C@H]1CCOC1 [BIBW2992 )Tovok)] | 115 ± 3 | 108.3 ± 0.98 | 110 ± 1.6 | 108 ± 3.2 | 91.85 ± 0.61 | 13.8 ± 1.6 | 98.7 ± 5.2 | 106.2 ± 1 | 103 ± 6 | 100.3 ± 0.78 | 78.3 ± 2.9 | 7.915 ± 0.042
CCO[C@@H]1OC(=O)C[C@@H]1NC(=O)[C@@H]1CCCN1C(=O)[C@@H](NC(=O)c1ccc(N)c(Cl)c1)C(C)(C)C [VX-765] | 109 ± 0.74 | 105 ± 4.9 | 116 ± 3.2 | 108 ± 4.6 | 101 ± 4 | 106 ± 1.8 | 111 ± 2.9 | 95.9 ± 4.8 | 101 ± 4.6 | 105 ± 6.8 | 101.8 ± 0.69 | 102 ± 4.9
NC1(Cc2ccc(Cl)cc2)CCN(c2ncnc3[nH]ccc23)CC1 | 65.2 ± 2.3 | 81 ± 1.2 | 81.4 ± 1.9 | 92.8 ± 5.6 | 77.3 ± 3.3 | 60.6 ± 1 | 114 ± 2.5 | 102 ± 1.4 | 111 ± 2.4 | 102 ± 5.5 | 96.3 ± 4.4 | 72 ± 0.83
O=c1n(CCCN2CCN(c3cccc(Cl)c3)CC2)nc2ccccn12 [Trazodone HCl] | 103 ± 1.2 | 103 ± 1.8 | 105 ± 2.1 | 99.8 ± 4.6 | 107 ± 1.8 | 103 ± 4.7 | 77.1 ± 6.5 | 84.3 ± 2.8 | 84.8 ± 4 | 86.6 ± 3.6 | 68.2 ± 3.2 | 63.7 ± 7.5
